Experimental findings from patent publication US5112594A, “Kit for preparing a technetium-99m myocardial imaging agent” (Mallinckrodt Medical, Inc., priority 1991, dated 1992) are described below.

The series can be described thus: Biodistribution Data of Selected Tc-99m(III) Complexes in Guinea Pigs. It counts as in vivo. The settings on record: for Heart/Blood / Heart/Liver: ratio.

Take “trans-[1,2-bis[dihydro-2,2,5,5-tetramethyl-3(2H)furanone-4-methyleneamino]ethane]bis-[tris(2-(2-(1,3-dioxanyl))]ethylphosphine]technetium-99m(III) [Complex IV]”: under “5 min”, the “% Heart uptake” value is reported as 0.8 % Injected dose/Organ, the Heart/Blood is listed as 5.4 and the Heart/Liver is 1.2. Besides, where the note is “60 min”, the “% Heart uptake” value amounted to 0.9 % Injected dose/Organ, the Heart/Blood stood at 58.6 and the Heart/Liver turned out to be 3.0.
On to “trans-[1,2-bis[dihydro-2,2,5,5-tetramethyl-3(2H)furanone-4-methyleneamino]ethane]bis[tris(3-methoxypropyl)phosphine]technetium-99m(III) [Complex I]”, for which, for the setting “5 min”, the “% Heart uptake” value is 0.8 % Injected dose/Organ, the Heart/Blood worked out at 4.6 and the Heart/Liver is on record as 1.5. Where the note is “60 min”, the “% Heart uptake” value is given as 0.9 % Injected dose/Organ, the Heart/Blood is listed as 35.6 and the Heart/Liver was determined as 6.6.
Regarding “trans-[1,2-bis[dihydro-2,2,5,5-tetramethyl-3(2H)furanthione-4-methyleneamino]ethane]-bis[tris(3-methoxypropyl)phosphine]technetium-99m (III) [Complex III]”, where the note is “5 min”, the “% Heart uptake” value was 1.1 % Injected dose/Organ, the Heart/Blood is 5.9 and the Heart/Liver worked out at 0.9. In addition, under “60 min”, the “% Heart uptake” value came to 1.0 % Injected dose/Organ, the Heart/Blood came to 3.5 and the Heart/Liver was determined as 1.5.
In the case of “trans-[1-[dihydro-2,2,5,5-tetramethyl-3(2H)furanthione-4-methyleneamino]-2-[dihydro-2,2,5,5-tetramethyl-3(2H)furanone-4-methyleneaminoethane]bis[tris(3-methoxypropyl)phosphine]technetium-99m(III) [Complex II]”, for the setting “5 min”, the “% Heart uptake” value was 0.9 % Injected dose/Organ, the Heart/Blood is listed as 6.1 and the Heart/Liver is recorded as 1.6. For the same substance, under “60 min”, the “% Heart uptake” value stood at 0.8 % Injected dose/Organ, the Heart/Blood is 26.5 and the Heart/Liver was 5.6.
